# Tested on: maltose dehydrogenase (acceptor)
# Experiment: Km value, substrate concentration-reaction rate relation
# Assay type: biochemical, Staphylococcus sp. B-0875
# Settings: approximate, calculated according to FIG. 5; no linear Lineweaver-Burk plot
# Description: Under the experimental conditions, Vmax cannot be determined and no linear Lineweaver-Burk plot can be obtained.
row,Compound,Km [µM]
1,OC[C@H]1O[C@H](O[C@H]2[C@H](O)[C@@H](O)[C@H](O)O[C@@H]2CO)[C@H](O)[C@@H](O)[C@@H]1O [maltose],~3800
2,OC[C@H]1O[C@H](O[C@H]2[C@H](O)[C@@H](O)[C@H](O)O[C@@H]2CO)[C@H](O)[C@@H](O)[C@@H]1O [β-maltose],1360

# Tested on: serum amylase
# Experiment: Serum amylase assay with different hydrogen acceptors (Example 12)
# Assay type: biochemical
# Settings: 0.002% hydrogen acceptor; human serum 20 μl; 37° C.; absorbancy at 550 nm
# Method: 40 mM phosphate buffer pH 7.0
# maltose dehydrogenase (acceptor) (16.7 U/ml)
# Human serun (20 μl) was added to the reaction mixture hereinabove (the hydrogen acceptor is shown in Table 6), and the material was incubated at 37° C. for 5 mins. Reaction mixture II (0.4 ml) was added thereto and the material was incubated at 37° C. Changes in absorbancy at 550 nm were measured. The results are shown in Table 6, from which it will be seen that serum amylase can be measured whatever the hydrogen acceptor.
row,Compound,Relative Amylase Activity [%]
1,CC(=O)Nc1cccc2c1nc1ccccc1[n+]2C [1-acetamide-phenazine methosulfate],103
2,"COc1cccc2c1nc1ccccc1[n+]2C [MPMS, 1-methoxy-phenazine methosulfate]",102
3,"C[n+]1c2ccccc2nc2ccccc21 [PMS, phenazine methosulfate]",100
4,"C[N+](C)=c1ccc2nc3c(ccc4ccccc43)oc-2c1 [meldola blue, 9-dimethylaminobenzophenazoxonium chloride]",97.4

# Tested on: maltose dehydrogenase (acceptor)
# Experiment: not given
# Assay type: biochemical, Staphylococcus sp. B-0875
# Settings: not given
# Method: (§1) The above reaction mixture (1.0 ml) in a small test tube is pre-incubated at 37° C. Enzyme solution (10 μl) is added thereto and incubated at 37° C. for 10 min. The reaction is stopped by adding 0.1N HCl (2.0 ml) and the optical density at 550 nm (As) is measured. Distilled water (10 μl) is added as a control and the amount measured at 550 nm (Ab).
# Metallic ions, EDTA or KCN shown in Table 4 is added to the reaction mixture as in the assay method, and the effect thereof is measured. The results are shown in […]
row,Compound,Relative Activity (%)
1,O=C(O)CN(CCN(CC(=O)O)CC(=O)O)CC(=O)O [EDTA],73

# Same assay, conditions: 1.0 mM additive in reaction mixture; no addition = 100
row,Compound,Relative Activity (%)
1,[Ba+2].[Cl-].[Cl-] [BaCl2],61.2
2,[Ca+2].[Cl-].[Cl-] [CaCl2],101
3,[Cl-].[Cl-].[Co+2] [CoCl2],17.9
4,[Cl][Cu][Cl] [CuCl2],0
5,[Cl-].[Li+] [LiCl],95
6,[Cl-].[Cl-].[Mg+2] [MgCl2],106
7,[Cl][Mn][Cl] [MnCl2],13.4
8,[N-]=[N+]=[N-].[Na+] [NaN3],95
9,[Cl-].[Cl-].[Zn+2] [ZnCl2],4.5

# Tested on: maltose dehydrogenase (acceptor)
# Experiment: Effect of surface-active agents on enzyme activity
# Assay type: biochemical, Staphylococcus sp. B-0875
# Settings: Concentration 0.1%, in place of 0.2% Triton X-100; no addition = 100
# Method: as §1
# Surface active agents as in Table 5 are added one at a time to aliquots of the reaction mixture as in the assay method, in place of 0.2% Triton X-100, and the enzyme activity is measured.
row,Compound,Relative Activity (%)
1,CCCCCCCCCCCCCCCC[N+](C)(C)C.[Cl-] [Cetyl trimethylammonium chloride],94
2,CCCCCCCCCCCCOS(=O)(=O)O [SDS],3.8
3,CCCCCCCCCCCCCCCC(=O)N(C)CC(=O)[O-].[Na+] [Sarcosinate PN],114
4,C[C@H](CCC(=O)O)[C@H]1CC[C@H]2[C@@H]3[C@H](O)C[C@@H]4C[C@H](O)CC[C@]4(C)[C@H]3C[C@H](O)[C@]12C [Sodium cholate],86
5,Sodium laurylbenzene sulfate,0.2
6,Span-85,103
7,Triton X-100,115
8,Tween-80,104

# Tested on: maltose dehydrogenase (acceptor)
# Experiment: Hydrogen acceptor (coenzyme) of maltose dehydrogenase (acceptor) in oxidation of maltose
# Assay type: biochemical, Staphylococcus sp. B-0875
# Design: Relative Activity (%): concentration or dose not given beside the values
# Settings: as hydrogen acceptor; Reaction pH 7.5; substrate maltose
# Method: as §1
# Hydrogen acceptor (coenzyme) of maltose dehydrogenase (acceptor) in the oxidative reaction (dehydrogenation) of maltose is measured according to the assay method. Maltose dehydrogenase (acceptor) of the present invention requires no NAD or NADP as a coenzyme. A decrease in soluble oxygen is observed at least whwn PMS, 1-methoxy-phenazine methosulfate (MPMS) or meldola blue is used as a hydrogen acceptor.
row,Compound,Relative Activity (%)
1,"COc1cccc2c1nc1ccccc1[n+]2C [MPMS, 1-methoxy-phenazine methosulfate]",30
2,"NC(=O)c1ccc[n+]([C@@H]2O[C@H](COP(=O)([O-])OP(=O)(O)OC[C@H]3O[C@@H](n4cnc5c(N)ncnc54)[C@H](O)[C@@H]3O)[C@@H](O)[C@H]2O)c1 [NAD, nicotine adenine dinucleotide]",0
3,"NC(=O)c1ccc[n+]([C@@H]2O[C@H](COP(=O)([O-])OP(=O)(O)OC[C@H]3O[C@@H](n4cnc5c(N)ncnc54)[C@H](OP(=O)(O)O)[C@@H]3O)[C@@H](O)[C@H]2O)c1 [NADP, nicotine adenine dinucleotide phosphate]",0
4,"COc1cc(-c2ccc(-[n+]3nc(-c4ccccc4)nn3-c3ccc([N+](=O)[O-])cc3)c(OC)c2)ccc1-[n+]1nc(-c2ccccc2)nn1-c1ccc([N+](=O)[O-])cc1 [NTB, nitrotetrazolium blue]",0
5,"C[n+]1c2ccccc2nc2ccccc21 [PMS, phenazine methosulfate]",100
6,"C[N+](C)=c1ccc2nc3c(ccc4ccccc43)oc-2c1 [meldola blue, 9-dimethylaminobenzophenazoxonium chloride]",20
7,CN(C)c1ccc2nc3ccc(=[N+](C)C)cc-3sc2c1 [methylene blue],0

# Same assay, conditions: oxidative reaction of maltose
row,Compound,ability to act as hydrogen acceptor
1,CC(=O)Nc1cccc2c1nc1ccccc1[n+]2C [1-acetamide-phenazine methosulfate],can also be a hydrogen acceptor
2,"O=C1C(Cl)=CC(=Nc2ccc(O)cc2)C=C1Cl [2,6-dichlorophenolindophenol]",can also be a hydrogen acceptor

# Tested on: maltose dehydrogenase (acceptor)
# Experiment: Substrate specificity of maltose dehydrogenase (acceptor), PMS/NTB assay at 550 nm
# Assay type: biochemical, Staphylococcus sp. B-0875
# Settings: substrate each 0.1M, 0.1 ml, in place of maltose; 37° C., 10 min
# Method: 20 mM phosphate buffer (pH 7.5)
# 0.1% bovine serum albumin
# 0.025% nitrotetrazolium blue (NTB)
# 0.001% phenazine methosulfate (PMS: hydrogen acceptor)
# as §1
# One unit is defined by the amount of enzyme which oxidizes (dehydrogenates)1 μmole of maltose in one minute and enzyme activity is calculated by the following equation: [formula]
# Maltose in the above assay method is replaced by the substrates in Table 2 (each 0.1M, 0.1 ml) and assayed according to the above assay method.
row,Compound,Relative Activity (%)
1,CCO [ethanol],0
2,O=C(CO)[C@@H](O)[C@H](O)[C@H](O)CO [fructose],31.4
3,O=C[C@H](O)[C@@H](O)[C@@H](O)[C@H](O)CO [galactose],56.1
4,O=C[C@H](O)[C@@H](O)[C@H](O)[C@H](O)CO [glucose],80.0
5,OCC(O)CO [glycerol],0
6,O[C@H]1[C@H](O)[C@@H](O)[C@H](O)[C@@H](O)[C@H]1O [inositol],0
7,OC[C@H]1O[C@@H](O[C@H]2[C@H](O)[C@@H](O)C(O)O[C@@H]2CO)[C@H](O)[C@@H](O)[C@H]1O (stereo partly drawn) [lactose],58.2
8,OC[C@H]1O[C@H](O[C@H]2[C@H](O)[C@@H](O)[C@@H](O[C@H]3[C@H](O)[C@@H](O)[C@@H](O[C@H]4[C@H](O)[C@@H](O)[C@@H](O[C@H]5[C@H](O)[C@@H](O)[C@@H](O[C@H]6[C@H](O)[C@@H](O)[C@@H](O[C@H]7[C@H](O)[C@@H](O)C(O)O[C@@H]7CO)O[C@@H]6CO)O[C@@H]5CO)O[C@@H]4CO)O[C@@H]3CO)O[C@@H]2CO)[C@H](O)[C@@H](O)[C@@H]1O (stereo partly drawn) [maltoheptaose],22.4
9,OC[C@H]1O[C@H](O[C@H]2[C@H](O)[C@@H](O)[C@@H](O[C@H]3[C@H](O)[C@@H](O)[C@@H](O[C@H]4[C@H](O)[C@@H](O)[C@@H](O[C@H]5[C@H](O)[C@@H](O)[C@@H](O[C@H]6[C@H](O)[C@@H](O)C(O)O[C@@H]6CO)O[C@@H]5CO)O[C@@H]4CO)O[C@@H]3CO)O[C@@H]2CO)[C@H](O)[C@@H](O)[C@@H]1O (stereo partly drawn) [maltohexaose],28.6
10,OC[C@H]1O[C@H](O[C@H]2[C@H](O)[C@@H](O)[C@@H](O[C@H]3[C@H](O)[C@@H](O)[C@@H](O[C@H]4[C@H](O)[C@@H](O)[C@@H](O[C@H]5[C@H](O)[C@@H](O)C(O)O[C@@H]5CO)O[C@@H]4CO)O[C@@H]3CO)O[C@@H]2CO)[C@H](O)[C@@H](O)[C@@H]1O (stereo partly drawn) [maltopentaose],36.4
11,OC[C@H]1O[C@H](O[C@H]2[C@H](O)[C@@H](O)[C@H](O)O[C@@H]2CO)[C@H](O)[C@@H](O)[C@@H]1O [maltose],100
12,OC[C@H]1O[C@H](O[C@H]2[C@H](O)[C@@H](O)[C@@H](O[C@H]3[C@H](O)[C@@H](O)[C@@H](O[C@H]4[C@H](O)[C@@H](O)C(O)O[C@@H]4CO)O[C@@H]3CO)O[C@@H]2CO)[C@H](O)[C@@H](O)[C@@H]1O (stereo partly drawn) [maltotetraose],60.3
13,OC[C@H]1O[C@H](O[C@H]2[C@H](O)[C@@H](O)[C@@H](O[C@H]3[C@H](O)[C@@H](O)C(O)O[C@@H]3CO)O[C@@H]2CO)[C@H](O)[C@@H](O)[C@@H]1O (stereo partly drawn) [maltotriose],77.4
14,O=C[C@@H](O)[C@@H](O)[C@H](O)[C@H](O)CO [mannose],52.4
15,OC[C@H]1O[C@H](OC[C@H]2O[C@H](O[C@]3(CO)O[C@H](CO)[C@@H](O)[C@@H]3O)[C@H](O)[C@@H](O)[C@@H]2O)[C@H](O)[C@@H](O)[C@H]1O [raffinose],0
16,OC[C@@H](O)[C@@H](O)[C@H](O)[C@@H](O)CO [sorbitol],0
17,OC[C@H]1O[C@@](CO)(O[C@H]2O[C@H](CO)[C@@H](O)[C@H](O)[C@H]2O)[C@@H](O)[C@@H]1O [sucrose],0
18,O=C[C@H](O)[C@@H](O)[C@H](O)CO [xylose],53.7
